Source: PMC7484342 (Journal of molecular biology, 2020)

Experiments:
[1] = molecular target: T1, purified TrVKORL (Takifugu rubripes, UniProt Q6TEK8); assay: Fluorometric activity assay of purified TrVKORL; assay type: biochemical
T1 sequence (Q6TEK8 1-175): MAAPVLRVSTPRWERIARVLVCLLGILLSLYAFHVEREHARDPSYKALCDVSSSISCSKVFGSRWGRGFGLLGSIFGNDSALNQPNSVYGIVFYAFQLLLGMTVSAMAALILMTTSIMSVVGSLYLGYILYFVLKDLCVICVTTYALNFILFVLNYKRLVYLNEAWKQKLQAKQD

[2] = molecular target: T2, hVKORL (Homo sapiens, UniProt Q8N0U8); assay: Cell-based activity assay
T2 sequence (Q8N0U8 1-176): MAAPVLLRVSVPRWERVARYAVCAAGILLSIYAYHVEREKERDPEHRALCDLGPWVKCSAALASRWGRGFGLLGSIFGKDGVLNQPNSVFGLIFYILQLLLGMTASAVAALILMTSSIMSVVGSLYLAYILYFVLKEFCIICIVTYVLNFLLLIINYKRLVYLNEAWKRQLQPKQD

[3] = molecular target: purified complex of hVKOR and warfarin (Homo sapiens, UniProt Q9BQB6); details: DTT as reductant
[4] = molecular target: T3, Takifugu rubripes VKOR-like (TrVKORL) (Takifugu rubripes, UniProt Q6TEK8); assay: Cell-based activity assay
T3 sequence (Q6TEK8 1-175): T1 sequence (Q6TEK8 1-175)

[5] = molecular target: T4, purified hVKORL (Homo sapiens, UniProt Q8N0U8); assay: Fluorometric activity assay of purified hVKORL; assay type: biochemical; details: IC50, purified and analyzed in LMNG, GSH, 250 nM enzyme, KO as substrate
T4 sequence (Q8N0U8 1-176): T2 sequence (Q8N0U8 1-176)

Chain of purified complex of hVKOR and warfarin (Q9BQB6 whole entry, one chain of several): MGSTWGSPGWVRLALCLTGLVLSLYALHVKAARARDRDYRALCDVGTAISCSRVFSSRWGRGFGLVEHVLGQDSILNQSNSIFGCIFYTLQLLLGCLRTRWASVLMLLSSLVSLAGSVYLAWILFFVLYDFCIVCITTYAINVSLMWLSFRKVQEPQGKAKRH

Row | Compound | decrease of KM with GSH reduction compared to DTT reduction ([1]; TrVKORL, KO as substrate) [fold] | IC50 [2] [nM] | IC50 ([1]; IC50 of warfarin, in presence of GSH, enzyme concentration 500 nM, KO or K) [nM] | Ki ([1]; Ki^app estimated from the Morrison equation, GSH, K as substrate, low enzyme concentration) [nM] | IC50 ([1]; apparent IC50, GSH as reductant, 500 nM TrVKORL, K as substrate) [nM] | IC50 ([1]; apparent IC50, GSH as reductant, 500 nM TrVKORL, KO as substrate) [nM] | IC50 ([1]; warfarin IC50, DTT as reductant, 500 nM enzyme, K as substrate) [nM] | IC50 ([1]; warfarin IC50, DTT as reductant, 500 nM enzyme, KO as substrate) [nM] | warfarin inhibition (in words) [3] | IC50 [4] [nM] | IC50 [5] [nM]
1 | CC(=CCC12OC1(C)C(=O)c1ccccc1C2=O)CCCC(C)CCCC(C)CCCC(C)C (centres unmarked) [KO, vitamin K epoxide] | 3.4 |  |  |  |  |  |  |  |  |  | 
2 | CC(=O)CC(c1ccccc1)c1c(O)c2ccccc2oc1=O (centres unmarked) [warfarin] |  | 238 | 250 to 260 | 29 | ~250 | ~260 | 3800 | 4700 | poorly inhibited | 97 | 120
